From ChEMBL document CHEMBL5661955, “ASAP - In vitro cytotoxicity” (2024)
Values joined by “and” are separate entries in the source; they are usually repeats but may differ in a detail not shown here. Identical values can stand only once.

Tests used:
[1] = (§1) Functional metabolic assay to measure dose dependent changes in cell viability from drug treatment in Vero E6/TMPRSS2 cells. Cells are treated with antiviral candidates that have been serially diluted. Cytotoxicity is reported via measuring absorbance and analysis of MTT/MTS assays in uninfected cells. The assay has been performed by Icahn School of Medicine at Mount Sinai.; format: toxicity, cell-based, VeroE6/TMPRSS2; conditions: chlorocebus sabaeus; for CC50: Vero E6/TMPRSS2 cells; for CC10: veroe6/tmprss2
[2] = (§2) Functional CPE-based assay to measure dose dependent changes in cell viability from drug treatment in Huh-7 cells. Cells are treated with antiviral candidates that have been serially diluted. Cytotoxicity is reported via analysis of MTT/ MTS assays in uninfected cells. The assay has been performed by National Institute of Allergy and Infectious Diseases.; format: toxicity; conditions: human
[3] = as §1, with “cells (cotreated” for “cells. Cells are treated”, “P-gp inhibitor, Elacridar). […]” for “antiviral candidates that have been serially diluted.”; format: toxicity, cell-based, VeroE6/TMPRSS2; conditions: chlorocebus sabaeus, p-gp concentration 2 uM
[4] = Functional assay to measure dose dependent changes in cell viability from drug treatment in Vero E6 miRFP670 cells (cotreated with P-gp inhibitor, CP100356) that are infected with Dengue virus type 2 New Guinea C. […] Cytotoxicity is reported via via analysis of DAPI count using high-content imager. The assay has been performed by KU Leuven.; format: toxicity, cell-based, Vero C1008; conditions: chlorocebus sabaeus
[5] = as §2, with “Vero E6 miRFP670” for “Huh-7”, “of” for “of MTT/”, “KU Leuven.” for “National Institute of Allergy and Infectious Diseases.”; format: toxicity, Vero C1008; conditions: chlorocebus sabaeus
[6] = as §2, with “Vero E6 miRFP670 cells (cotreated with P-gp inhibitor, CP100356).” for “Huh-7 cells.”, “of” for “of MTT/”, “KU Leuven.” for “National Institute of Allergy and Infectious Diseases.”; format: toxicity, Vero C1008; conditions: chlorocebus sabaeus, Vero E6 miRFP670 cells, with CP100356 (P-gp inhibitor, concentration not stated)
[7] = Functional assay to measure dose dependent changes in cell viability from drug treatment in Vero E6 miRFP670 cells that are infected with Dengue virus type 2 New Guinea C. Cells are treated with antiviral candidates that have been serially diluted. Cytotoxicity is reported via via analysis of DAPI count using high-content imager. The assay has been performed by KU Leuven.; format: toxicity, cell-based, Vero C1008; conditions: chlorocebus sabaeus
[8] = as §1, with “HeLa” for “Vero E6/TMPRSS2”, “via” for “via measuring absorbance and”, “KU Leuven.” for “Icahn School of Medicine at Mount Sinai.”; format: toxicity, cell-based; conditions: human
[9] = Vero E6/TMPRSS2 cells, with Elacridar (P-gp inhibitor, concentration not stated)
[10] = with CP100356 (P-gp inhibitor, concentration not stated), p-gp concentration 500 nM
[11] = vero c1008, p-gp concentration 500 nM

Row | Compound | CC50 [1] [µM] | CC10 [1] [µM] | CC50 [2] [µM] | CC50 [3, 9] [µM] | CC50 [4, 10] [µM] | further results
1 | NCc1ccc(-c2ncc(OCC3CCNCC3)nc2-c2ccc(-c3ccoc3)cc2)cc1 | > 50 | > 50 | 5.5 | 49.9 | 1.7 | CC10 ([3]; veroe6/tmprss2): 39.762 µM
2 | CCCC[C@H](NC(C)=O)C(=O)N[C@H](C(=O)NCc1ccc(C(N)=O)cc1)c1ccc(OCc2ccccc2)cc1 |  |  | 15 | > 50 | > 10 | CC10 ([3]; veroe6/tmprss2): > 50 µM
3 | NCc1ccc(-c2ncc(OCC3CCNCC3)nc2-c2ccc(C3CCOCC3)cc2)cc1 |  |  | 32 |  | > 10 | 
4 | CCCCCC(=O)N[C@H](C(=O)N1CCCCC1)c1ccc(OCc2ccccc2)cc1 |  |  | 19 |  | > 10 | 
5 | O=C(Nc1ccc2c(c1)B(O)OC2)c1cccc(OCc2c(Cl)cccc2Cl)c1 | > 50 | > 50 | 1.9 |  | > 10 | 
6 | CC1(C)Cc2sc(NC(=O)Cc3ccc(S(N)(=O)=O)cc3)c(C#N)c2CN1CC1CCCCC1 |  |  | 16 |  |  | CC50 ([5]; Vero E6 miRFP670 cells): > 50 µM
7 | O=C(Nc1ccc2c(c1)CNC2)c1cc(Cl)cc2[nH]ncc12 |  |  |  | < 0.023 |  | CC50 ([6]; p-gp concentration 100 nM): > 50 µM; CC50 [7]: 6.72 µM; CC10 ([3]; veroe6/tmprss2): > 50 µM; CC50 ([5]; Vero E6 miRFP670 cells): 49.7 µM; CC50 ([5]; vero c1008): > 50 µM; CC50 ([4]; vero c1008, p-gp concentration 100 nM): 5.47 µM
8 | NCc1cccc(NC(=O)C[C@@H](NC(=O)OCc2ccccc2)c2ccc(OCc3ccccc3)cc2)c1 |  |  | 6.1 |  | > 10 | 
9 | O=C(O)c1cc(Oc2ccc(F)cc2)c(F)cc1NS(=O)(=O)c1ccc(Oc2ccccc2Cl)cc1 |  |  | 20 | > 50 | 5.31 | CC50 ([3]; veroe6/tmprss2): 44 µM
10 | c1ccc2sc(C3CCN(Cc4c[nH]c5ccccc45)CC3)nc2c1 |  |  | 18 | 49.2 | 5.31 | CC50 ([3]; veroe6/tmprss2): > 50 µM
11 | CC(C)CNC(=O)c1cc(Cl)c(F)cc1NS(=O)(=O)c1ccc(Oc2ccccc2Cl)cc1 | > 50 | > 50 | 3.1 | 49.4 | > 10 | CC50 ([3]; veroe6/tmprss2): 38.1 µM; CC50 ([5]; Vero E6 miRFP670 cells): 4.96 µM; CC50 ([5]; vero c1008): 5.79 µM and 3.21 µM; CC50 [4, 11]: 5.35 µM
12 | CC(C)CNC(=O)c1cc(Cl)ccc1NS(=O)(=O)c1ccc(Oc2ccccc2Cl)cc1 | > 50 | > 50 | 6.5 |  | > 10 | CC50 ([3]; veroe6/tmprss2): > 50 µM; CC50 ([5]; Vero E6 miRFP670 cells): 4.76 µM
13 | O=C(Nc1ccc2c(c1)CNC2)c1ccnc2[nH]ccc12 |  |  |  |  |  | CC50 ([8]; HeLa cells): > 50 µM; CC10 ([8]; hela): > 50 µM
14 | c1cc(C2CCN(Cc3c[nH]c4ccccc34)CC2)c2ccncc2c1 | > 50 | > 50 | 32 | > 50 |  | CC10 ([3]; veroe6/tmprss2): > 50 µM; CC50 [4, 11]: > 50 µM
15 | O=C(NCC(F)(F)F)c1cc(Cl)c(F)cc1NS(=O)(=O)c1ccc(Oc2ccccc2Cl)cc1 |  |  | 1.9 |  | > 10 | CC50 ([5]; Vero E6 miRFP670 cells): 3.98 µM; CC50 [4, 11]: 5.65 µM
16 | COc1cc(N[C@@H](C(=O)N2CCc3ccc(OC(F)(F)F)cc32)c2ccc(Cl)cc2)cc(OCCCC(=O)O)c1 |  |  | 19 |  |  | CC50 ([6]; p-gp concentration 500 nM): 11.1 µM; CC10 ([3]; veroe6/tmprss2): > 10 µM and 7.237 µM; CC50 ([3]; veroe6/tmprss2): > 10 µM and 37.7 µM; CC50 ([5]; vero c1008): > 50 µM and 19.7 µM and 11.3 µM
17 | COc1cc(N[C@@H](C(=O)c2c[nH]c3ccc(OC(F)(F)F)cc23)c2ccc(Cl)cc2OC)cc(S(C)(=O)=O)c1 | > 10 | > 10 | 5 | > 10 |  | CC50 ([6]; p-gp concentration 500 nM): 1.49 µM
